Measured values from patent US20070225245A1, “Viral vector driven mutant bacterial cytosine deaminase gene and uses thereof” (priority 1998, published 2007).
Converted amounts (≈) assume the structure as drawn.

What was measured:
[1] = tested on: Intracranial U87MG Human Gliomas; test: Survival, intracranial glioma, Ad, 5-FC and external beam radiation; format: in vivo, athymic nude mice
Procedure: This therapeutic effect of AdCMVCD/5-FC on glioma cells could be further enhanced with concurrent fractionated ionizing external beam radiation (Table 9). U87MG cells (5×10^5) were stereotactically injected into the right frontal cortex of athymic nude mice. Tumors were established for 5 days before intratumoral injection of AdCMVCD (10^9 pfu/mouse). Mice were then treated IP with 5-FC (500 mg/kg bid) on days 2-9 post infection, irradiated with local external beam 330 cGy ^60Co radiation on days 4 and 7 post-infection, and monitored for survival. Kaplan-Meier survival curves and median and 20% survival values were calculated by standard methods.

[2] = tested on: BXPC-3 pancreatic tumor cells transfected with AdCMVCD; test: MRS of 5-FC to 5-FU conversion in vitro; format: cell-based, human; conditions: after 120 minutes; 3.8 mM 5-FC
Procedure: In vitro models of molecular chemotherapy were developed using the AdCMVCD cytosine deaminase toxin gene for the transfection of both human pancreatic and colon cancer cell lines (BXPC-3, WiDR, LS174T). […] In this study, an in vitro treatment model was proposed using 3×10^6 BXPC-3 pancreatic tumor cells transfected at a MOI of 100 with AdCMVCD. These cells were then examined by MRS at 0, 2, 6 and 24 hours for conversion of 5-FC to 5-FU.
Initial studies have shown the sensitivity of fluorine spectroscopy by its ability to detect 3.8 mM 5-FC when initially added to transfected BXPC-3 cells. […] However, after 120 minutes, the signal for 5-FC had dropped to 50% of its original intensity and the signal for 5-FU had increased to approximately 40% of the original 5-FC signal indicating conversion of 5-FC to 5-FU.

[3] = tested on: WiDr human colon cancer cells; test: Radiation dose response, colony formation after Ad infection and 5-FC; format: cell-based; conditions: No Viral Infection, 20 mg/ml 5-FC
Procedure: WiDr human colon cancer cells were plated at a density of 5×10^5 cells/well in 6-well tissue culture plates 24 hours prior to adenoviral infection. WiDr cells were then infected with AdCMVCD at a multiplicity of infection (MOI) of 1 or 10 plaque forming units (pfu) per cell in 0.5 ml Opti-Mem (Gibco-BRL) for 1.5 hours. A control virus that encodes the reporter gene E. coli LacZ which produces β-galactosidase (AdCMVLacZ) was provided by Dr. De-Chu Tang. Viral infection was stopped by the addition of 3 ml of complete growth media and the cells were returned to the incubator overnight. The following day, media was replaced with media supplemented with the appropriate concentration of 5-FC or no drug. The cells were then incubated in 5-FC for 3 days. The cells were then mock irradiated or irradiated on ice using a Picker ^60Co therapy unit (Cleveland, Ohio) at a dose rate of 80 cGy/min. The cells were then plated for colony formation. Colonies formed in 14 days and were fixed in ethanol and stained with 1% crystal violet.
SK-ChA-1 cells were infected with 10 MOI of AdCMVCD, or AdCMVLacZ, treated with 0, 10 or 20 μg/ml 5-FC for 72 hours, then irradiated with 0 or 8 Gy (80 cGy/min). The cells were irradiated on ice, then trypsinized, counted and plated in triplicate in 25 cm^2 tissue culture dishes (Costar) in media free of 5-FC. The plates were fixed and stained 14 days later. For both WiDr and SK-ChA-1 cells, colonies containing greater than 50 cells were counted. Percent survival was calculated as the average number of colonies counted divided by the number of cells plated times plating efficiency (PE); where PE was the fraction of colonies counted divided by cells plated without radiation. The dose response curve was fitted using the Fit v 2.4 software (provided by Dr. N. Albright, University of California at San Francisco, San Francisco, Calif.).

[4] = tested on: human cell lines derived from gliomas, prostate, colon, and pancreatic carcinomas; test: 5-FU toxicity, panel of cell lines; format: cell-based; conditions: range over 12 cell lines
Procedure: Tumor cells (5×10^4) were plated in 96 well plates and allowed to adhere overnight. Cells were then incubated continuously in the presence of increasing concentrations of 5-FU (0-200 μg/ml) and assayed for toxicity using an MTS assay (Promega, Madison Wis.) after 5-days. ICx values were calculated as previously described. U251MG glioma cells were as sensitive to 5-FU as LS174T and WiDR colon carcinoma cells, while D54MG, U87MG and U118MG glioma cells and AsPC-1 pancreatic carcinoma cells were 3-fold less sensitive (Table 2).

[5] = tested on: Neuro-2a murine neuroblastoma cells; test: HSV replication in vitro, plaque titration on Vero cells; format: cell-based; conditions: 50 μM 5-FU in growth medium; first evident at 48 h post-infection
Procedure: M012 replication was compared to R3659 replication over time in murine Neuro-2a tumor cells at both high (5.0) and low (0.1) MOI. Infected cells were grown in either growth medium alone or growth medium containing 5-FC (500 μM) or 5-FU (50 μM) by determining viral titers at 12, 24, 48, 72, and 96 h post-infection in the presence or absence of 500 μM 5-FC or 50 μM 5-FU. Virus recovery at the different time points was determined by titering on Vero cells. Experiments were performed in duplicate. Inhibition was most significant at high MOI, with P=0.002.
To establish replication competence of M012 in murine tumor cell lines in vitro, Neuro-2a murine neuroblastoma cells were infected with either the parent Dg134.5 HSV, R3659, or M012 using a low (0.1) or high (5.0) MOI. To determine if high concentrations of 5-FC might interfere with HSV replication, cells were incubated in the presence of either 500 μM 5-FC or 50 μM 5-FU, or media alone and infected cells were harvested at 12, 24, 48, 72, and 96 h post-infection. Total PFU recovered at each time point was determined by plaque titration on Vero cells (FIG. 9). At both MOI, M012 replication in DMEM alone was similar to its parent virus, R3659. […] The addition of 5-FC to the growth medium following infection inhibited M012 replication, but had no effect on R3659 replication at either MOI. […]

[6] = Saline (no virus) + 5-FC, no XRT

SMILES	Survival 20% ([1]; Saline (no virus) + 5-FC + XRT)	Survival Median ([1]; Saline (no virus) + 5-FC + XRT)	Survival 20% [1, 6]	Survival Median [1, 6]	5-FC MRS signal, % of its original intensity [2] [%]	Linear Quadratic Parameters a [3]	Linear Quadratic Parameters al [3]	Linear Quadratic Parameters b [3]	Single Hit Multiple Target Do [3]	Single Hit Multiple Target Dq [3]	IC50 [4] [µg/mL]	reduction in replication of M012 or R3659 [5]	5-FU MRS signal, % of the original 5-FC signal [2]
Nc1nc(=O)[nH]cc1F [5-FC, 5-fluorocytosine]	32	31	55	28	50	0	0	0.04	1.760	3.679			
O=c1[nH]cc(F)c(=O)[nH]1 [5-FU, 5-fluorouracil]											0.04 to 4.97 (≈ 0.308 to 38.2 µM)	1.0-2.0 log	approximately 40%
